In paper PMC9456491, “Targeting the Mitochondrial Protein VDAC1 as a Potential Therapeutic Strategy in ALS” (International Journal of Molecular Sciences, 2022):

Columns and labels:
[1] = tested on: release of mitochondrial DNA (mtDNA); cGAS/STING; set-up: method as in PMID 34217890; settings: ref [45]; cited from earlier work
VDAC1 oligomerization = settings: ref [49]; cited from earlier work
[2] = tested on: mutant SOD1^G93A transgenic mice; assay: SOD1^G93A mouse ALS model, drinking water treatment; assay type: in vivo; settings: SOD1^G93A female mice, drinking water 0.0625 mg/mL, about 20 mg/kg daily; n = 10; vs DMSO
Description: (§1) Mutant SOD1^G93A transgenic mice (B6SJL-TgN-SOD1-G93A-1Gur) were obtained from The Jackson Laboratory (Bar Harbor, ME, USA) for the experiments. All experiments were approved by the Animal Care and Use Committee of Ben-Gurion University of the Negev, as required by Israeli legislation, and all efforts were taken to minimize animal suffering.
VBIT-4 and VBIT-12 were dissolved in DMSO (80 mg/mL) and then diluted in drinking water while being added in a dropwise manner into the acidic water to a final concentration of 0.0625 mg/mL. Considering an estimated daily water consumption of a 25 g mouse as 6–8 mL per mouse, the daily dose of VBIT-4 and VBIT-12 was determined. Assuming a mouse drinks about 8 mL of water daily, it consumed 20 mg/kg of the compound. Control untreated WT mice received water containing DMSO (0.36%) at the final concentration as in VBIT-4 or VBIT-12 drinking solutions. Mutant SOD1^G93A female mice were randomly divided to receive drinking water containing VBIT-4, VBIT-12, or DMSO for the control. Water consumption was verified daily.
Mean age of disease onset, defined as the time when mice reached peak body weight (A, B), and disease end stage, defined as the time when the mouse could not right itself within 20 s when placed on its side (C, D) of mutant SOD1G93A mice without (control, n = 10, blue) and with treatment of VBIT‐4 (n = 10, red) or VBIT‐12 (n = 10, green) through drinking water. The results are the means ± SD. (E–G) Mean (± SD) duration of early disease (from onset to 10% weight loss) (E), duration of late disease (from 10% weight loss to end stage) (F), and disease progression (from onset to end stage) (G). At each time point, the p‐ value was determined by a Student’s t‐test. Error bars denote SDs. Plot of averaged forelimb (H) and hindlimb (I) grip strength for SOD1G93A female mice untreated (n = 10, blue), treated with VBIT‐4 (n = 10, red), or treated with VBIT‐12 (n = 10, green) through the drinking water. SOD1G93A mice were monitored up to the end stage. The untreated SOD1G93A mice received water with the same concentration of DMSO as controls. At each time point, the p‐value was determined by a Student’s t‐test. Error bars denote SDs.
Table S1. Antibodies used in the study

VDAC1 [3] = tested on: VDAC1; set-up: method as in PMID 27738100, PMID 30293774, PMID 31857488, PMID 34217890; settings: ref [49], [43], [44], [45]; cited from earlier work
[4] = tested on: iPSC-derived motor neurons from ALS patients carrying mutations in TDP-43; set-up: method as in PMID 33031745; settings: TDP-43 mutations, ref [58]; cited from earlier work
mice = settings: mouse, in vivo; cited from earlier work
Excerpt: Mutant SOD1^G93A female mice were divided into three groups (10 mice per group): a control group (DMSO), VBIT-4-, and VBIT-12-treated groups.

VDAC1 [5] = assay: VDAC1 oligomerization in spinal cord mitochondria (EGS crosslinking); assay type: biochemical; settings: spinal cord mitochondria 1 mg/mL from SOD1^G93A mice, VBIT-4 20 μM, 10 min pre-incubation, PBS pH 8.3, 20 min, 30 °C, immunoblot, dimer quantification, n = 3
Description: (§2) Figure 3 VDAC1 oligomerization is increased in mutant SOD1^G93A spinal cord mitochondria. […] A cell viability analysis was performed using the CellTiter 96 AQueous One-Solution cell proliferation assay using a plate reader at 490 nm. (B,C) Spinal cord mitochondria (1 mg/mL) from non-transgenic, SOD1^WT or SOD1^G93A rats were incubated for 10 min at 30 °C in 10 mM Tricine, pH 8.2, with the indicated concentration of the crosslinking reagent EGS (B) or DSP (C). Sample buffer for electrophoresis containing 2-mercaptoethanol, except for DSP (S-S-containing reagent), was added, and the samples were subjected to SDS/PAGE (10% gel) and immunoblot analysis using anti-VDAC1 antibodies. (D,E) Spinal cord mitochondria (1 mg/mL, n = 3) from non-transgenic or SOD1^G93A mice were incubated for 20 min at 30 °C in PBS, pH 8.3, with the indicated concentration of EGS, and subjected to SDS-PAGE (10%), immunoblotting (D), and quantitative analysis (E). (F,G) Spinal cord mitochondria isolated from SOD1^G93A mice were pre-incubated with VBIT-4 (10 min, 20 μM) and subjected to cross linking as described in D. Samples were subjected to SDS/PAGE 4–15% gradient gel and immunoblotting using anti-VDAC1 antibodies (F) and to dimer quantitative analysis (G). VDAC1 dimer levels were quantified using ImageJ software. The positions of VDAC1 monomers, dimers, trimers, tetramers, and higher oligomers are indicated. […]

[6] = tested on: motor-neuron-like NSC-34 cells expressing human SOD1^G93A; assay: Viability of NSC-34 cells expressing mutant SOD1^G93A; assay type: cell-based; settings: NSC-34, human SOD1^G93A; VBIT-12 15 µM, 12 h, 24 h post-transfection; 490 nm; n = 3, means ± SEM
Description: as §2

[7] = tested on: mutant SOD1^G93A transgenic mice; assay: SOD1^G93A mouse ALS model, IP treatment; assay type: in vivo
Description: Mean age of disease onset, defined as the time when mice reached peak body weight as a function of time (A,B), and disease end stage, defined as the time when the mouse could not right itself within 20 s when placed on its side (C,D) considering mutant SOD1^G93A mice IP-injected every second day with 200 µL DMSO 4% (control, n = 10, blue) or with VBIT-12 (26 mg/kg) (n = 10, green). The results are the means ± SD. (E–G) The means ± SD for the duration of early disease (from onset to 10% weight loss) (E), duration of late disease (from 10% weight loss to end stage) (F), and disease progression (from onset to end stage) (G) are presented. Plots of the averaged forelimb (H) and hindlimb (I) grip strength for SOD1^G93A female mice untreated (n = 10, blue) or treated with VBIT-12 (n = 10, green). SOD1^G93A mice were monitored up to the end stage. At each time point, the p-value was determined by Student’s t-test with SD. * p < 0.05; ns, non-significant.
as §1
For intraperitoneal (IP) injection, VBIT-12 (80 mg/mL) in DMSO was diluted with saline, pH 7.0, to a final concentration of 3.25 mg/mL. Mice received 200 µL by IP injection resulting in a final VBIT-12 concentration of ~26 mg/Kg. VBIT-12 was IP injected every second day starting from day 60 for 12 weeks, and then the VBIT-12 final concentration was reduced to ~13 mg/Kg. The control group was IP injected with around 200 µL of DMSO (4%).

[8] = SOD1^G93A female mice, IP 26 mg/kg every other day from day 60, then ~13 mg/Kg, n = 10, during disease progression, Student's t-test
[9] = SOD1^G93A mice, IP 26 mg/kg every other day from day 60 for 12 weeks, then ~13 mg/Kg, n = 10, vs DMSO 4%

| SMILES | inhibition of mtDNA release and inflammation [1] | effect on cells under physiological conditions (VDAC1 oligomerization) | prevention of VDAC1 oligomerization and apoptotic cell death (VDAC1 oligomerization) | prevention of cytosolic Ca^2+ elevation and ROS production (VDAC1 oligomerization) | disease onset (peak body weight) [2] | survival (disease end stage) [2] | inhibition of VDAC1 conductance (VDAC1 [3]) | prevention of cytosolic accumulation of mtDNA and inflammation [4] | tolerability (mice) | inhibition of VDAC1 oligomerization (VDAC1 [5]) | prevention of mutant SOD1 cell toxicity (cell survival) [6] | forelimb grip (pulling) strength [7, 8] | hindlimb grip (pulling) strength [7, 8] | maintenance of limb muscle strength over time ([7]; SOD1^G93A mice, IP 26 mg/kg every other day from day 60, then ~13 mg/Kg, n = 10, vs DMSO 4%) | disease onset [7, 9] | survival [7, 9] | muscle function and survival (summary) ([7]; SOD1^G93A transgenic mice, "daily treatment" as worded in the discussion) | muscle endurance, hindlimb grip strength [2] |
| --- | --- | --- | --- | --- | --- | --- | --- | --- | --- | --- | --- | --- | --- | --- | --- | --- | --- | --- |
| O=C(CC(CO)N1CCN(c2ccc(OC(F)(F)F)cc2)CC1)Nc1ccc(Cl)cc1 (stereo not drawn) [VBIT-4] | inhibit the release of mitochondrial DNA (mtDNA) via preventing VDAC1 oligomerization and inhibiting inflammation | no effect on cells under physiological conditions | prevent both VDAC1 oligomerization and apoptotic cell death | prevent VDAC1 oligomerization, and, thereby, apoptosis and apoptosis-associated processes such as cytosolic Ca^2+ elevation and ROS production | no effect on disease onset | no effect on disease onset (Figure S3A,B) or survival | inhibit VDAC1 conductance | prevented the cytosolic accumulation of mtDNA and inflammation | well tolerated in mice | inhibited the oligomerization of VDAC1 |  |  |  |  |  |  |  |  |
| O=C(O)CNC(=O)C1(Nc2ccccc2)CCN(Cc2cccc3ccccc23)CC1 [VBIT-12] |  | no effect on cells under physiological conditions | prevent both VDAC1 oligomerization and apoptotic cell death | prevent VDAC1 oligomerization, and, thereby, apoptosis and apoptosis-associated processes such as cytosolic Ca^2+ elevation and ROS production | no effect on disease onset | no effect on disease onset (Figure S3A,B) or survival | inhibit VDAC1 conductance |  |  |  | partially prevented the mutant SOD1 cell toxicity effect | significantly greater pulling strength | significantly greater pulling strength | maintained their limb muscle strength for a significantly more extended period of time | positive tendency in delaying disease onset (Figure 5A,B) and survival of SOD1^G93A mice, although this was not statistically significant | positive tendency in delaying disease onset (Figure 5A,B) and survival of SOD1^G93A mice, although this was not statistically significant | significantly improved muscle function, without extending survival | some benefit on muscle endurance as measured by grip strength in the hindlimbs |
